Experimental data: patent EP4810493A1, “HETEROCYCLIC CARBONYL DERIVATIVE MODULATOR, PREPARATION METHOD THEREFOR, AND USE THEREOF” (Shanghai Hansoh Biomedical Co., Ltd., priority 2023, dated 2025)
Like-named read-outs stand apart in the source and are kept apart here.

Assays:
M4 receptor = biological target: T1, M4 receptor (Homo sapiens, UniProt P08173); assay: Calcium flux (FLIPR) potentiation assay in cells stably expressing M4 receptor; format: cell-based
T1 construct: expressed in transfected cells
T1 sequence (P08173 1-479): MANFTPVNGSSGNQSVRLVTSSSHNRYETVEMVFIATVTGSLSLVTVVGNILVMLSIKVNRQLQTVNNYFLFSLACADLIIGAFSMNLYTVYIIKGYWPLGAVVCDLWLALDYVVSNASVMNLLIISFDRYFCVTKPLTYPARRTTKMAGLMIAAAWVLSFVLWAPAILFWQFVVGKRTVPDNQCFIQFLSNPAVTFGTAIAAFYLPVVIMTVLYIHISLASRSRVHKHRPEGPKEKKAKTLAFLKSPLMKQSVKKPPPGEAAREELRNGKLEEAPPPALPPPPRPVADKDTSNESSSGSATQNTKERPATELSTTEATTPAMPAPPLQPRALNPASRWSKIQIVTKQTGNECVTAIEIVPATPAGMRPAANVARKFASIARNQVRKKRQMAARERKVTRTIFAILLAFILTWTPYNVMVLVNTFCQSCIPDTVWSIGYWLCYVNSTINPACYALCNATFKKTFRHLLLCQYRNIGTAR
Source text: Test example 1. Determination of the effect of the compounds of the present invention on calcium current in cells stably expressing M1-M5 receptors
To detect the potentiating effect of compounds on calcium flux activity in CHO-K1/human M1/3/5 and CHO-K1/Gα15 M2/4 cells.
384-well assay plate, 384-well plate, FLIPR Tip, FLIPR Penta plate reader, Dispendix non-contact nanoliter dispensing system (liquid handling workstation), liquid handler.
Ham's F-12 Nutrient Mix, foetal bovine serum, P/S (Gibco: 15140122), HBSS (Gibco: 14025076), HEPES (Gibco: 15630080), FLIPR calcium 6 assay kit (Molecular Devices: R8190), Probenecid (PBA) (Invitrogen: P36400), Acetylcholine chloride (Sigma: A6625-25G) Complete culture medium: DMEM + 10% FBS + 1X P/S; Cell seeding medium: DMEM + 10% FBS + 1X PS; Assay buffer 1: 1X HBSS + 20 mM HEPES +2.5 mM Probenecid; Assay buffer 2: 1X HBSS + 20 mM HEPES; Cell line: CHO-K1/M1; CHO-K1/M2/Gα15; CHO-K1/M3; CHO-K1/M4/Gα15; CHO-K1/M5.
FLIPR calcium 6 assay kit: Component A was dissolved in Assay buffer 1, and the mixture was shaken for 1-2 min, sub-packaged and stored at -20°C.
• 1) CHO-K1/M1; CHO-K1/M2/Gα15; CHO-K1/M3; CHO-K1/M4/Gα15; and CHO-K1/M5 cell lines were cultured separately in complete culture medium at 37°C, 5% CO2 to 70%-90% confluency. • 2) The cells were digested and resuspended in cell seeding medium, 5,000 cells/well/20 µL were seeded into a 384-well cell culture plate, and the cells were cultured at 37°C, 5% CO2 for 24 hours. • 3) The cell culture plate was taken out of the CO2 incubator and equilibrated at room temperature for 10 minutes. • 4) Component A solution was removed and allowed to equilibrate to room temperature. 20 µL of Component A solution was added to each well of the cell culture plate, and incubated at room temperature in the dark for 1 hour. • 5) Acetylcholine chloride (ACh), a muscarinic receptor agonist, was prepared in Assay buffer 2 at EC20/EC100 concentrations; subsequently, 30 µL of the prepared muscarinic receptor agonist was added to a 384-well agonist plate (PE: 6008590) using a Multidrop Combi; the working solutions of the positive control compound and the test compound were serially diluted at a 3.16-fold gradient and dispensed (450 nL) into a 384-well compound plate (PE: 6008590) using the Dispendix liquid handling workstation; 30 µL of Assay buffer 2 was added to the 384-well compound plate (PE: 6008590) using the Multidrop Combi; the positive control compound and the test compound were diluted to 6X, mixed by shaking, and placed at room temperature until use. • 6) 10 µL of the diluted 6X compound was added to the assay wells of the corresponding 384-well cell plate using the FLIPR Penta, followed by a 2-minute incubation. • 7) 10 µL of the prepared muscarinic receptor agonist was added to the assay wells of the corresponding 384-well cell plate using the FLIPR Penta, with simultaneous data acquisition.
FLIPR Penta was used to read and collect the fluorescence signal value (RFU). The maximum RFU value was used to calculate the percent activation data based on the readings of the Low control (DMSO control group) and High control (ACh EC100) experimental groups {% activation rate = (RFUsample - RFUlow control) / (RFUhigh control - RFUlow control)×100}. The test compound was diluted 3.16X in the reaction system to generate 11 concentration points ranging from 30 µM to […].

[1] = Pharmacokinetic determination in SD rats; conditions: rat, in vivo, po, male SD rats, p.o. 5 mg/kg; for MRT inf: read-out: MRT 0-∞
Method: To investigate the pharmacokinetic behaviours of the example compounds in both plasma and brain of SD rats (test animals) following oral administration at a dose of 5 mg/kg.
(§1) 2.1 Test drugs: The example compounds of the present invention, made in house.
2.2 Test animals: SD Rat, male.
24 SD Rats, male; p.o. respectively at a dose of 5 mg/kg and an administration volume of 10 mL/kg after the rats were fasted overnight.
(§2) Formulation of a drug for oral administration: 0.5% CMC-Na (1% Tween 80).
(§3) 0.50 g of sodium carboxymethyl cellulose (CMC-Na, viscosity: 800-1200 Cps) was weighed and dissolved in 99 mL of purified water, and 1 ml of Tween 80 was added. The components were mixed thoroughly under stirring to form a clear solution.
The example compound was weighed into a 100 mL glass vial, 80 mL of the solution was added, and the mixture was subjected to ultrasound treatment for 10 minutes to obtain a homogeneous suspension with a concentration of 0.5 mg/mL.
(§4) After the test animals were euthanised by CO2, blood samples were collected from the heart and brain tissues were harvested at 0.25 h, 0.5 h, 1 h, 2 h, 4 h, 6 h, 8 h, and 24 h post-dose. Blood was placed in EDTA-2K tubes, and centrifuged at 6000 rpm for 6 min at 4°C to separate the plasma. Brain tissues were rinsed with pre-cold PBS, blotted dry, and weighed. Both plasma and brain samples were stored at -80°C. The animals were fed 4 h after administration.
(§5) • 3) 40 uL of plasma sample was precipitated with 160 uL of acetonitrile, mixed, and centrifuged at 3500 × g for 5-20 min. Brain tissues were diluted, homogenised and centrifuged. • 4) 100 uL of the treated supernatant solution was taken for LC/MS/MS analysis to determine the concentration of the test compounds.
(§6) • Liquid phase conditions: Shimadzu LC-20AD pump • Mass spectrometry conditions: AB Sciex API 4000 mass spectrometer • Chromatographic column: Phenomenex Gemiu 5 um C18 50 × 4.6 mm • Mobile phase: solution A: 0.1% formic acid in water, solution B: acetonitrile • Flow rate: 0.8 mL/min • Elution time: 0-4.0 min, with eluents as follows:
(§7) The main pharmacokinetic parameters were calculated using WinNonlin 8.1.

[2] = Pharmacokinetic determination in Balb/c mice; conditions: mouse, in vivo, po, male Balb/c mice, p.o. 5 mg/kg
Method: To investigate the pharmacokinetic behaviours of the example compounds in both plasma and brain of Balb/c mice (test animals) following oral administration at a dose of 5 mg/kg.
as §1
2.2 Test animals: Balb/c Mouse, male.
24 Balb/c mice, male; p.o. respectively at a dose of 5 mg/kg and an administration volume of 10 mL/kg after the mice were fasted overnight.
as §2, §3
The example compound was weighed into a 4-mL glass vial, 2.4 mL of the solution was added, and the mixture was subjected to ultrasound treatment for 10 minutes to obtain a homogeneous suspension with a concentration of 0.5 mg/mL.
as §4
as §5, with “1)” for “3)”, “2)” for “4)”
as §6, §7

[3] = CHO-K1/M4/Gα15 cells, potentiation of acetylcholine (EC20) calcium flux, read-out: M4 FLIPR EC50

| EC50 (M4 receptor; [3]) | AUC(0-inf) [1] | Cmax [1] | Tmax [1] | MRT inf [1] | AUC(0-inf) [2] | Cmax [2] | Tmax [2] | MRT inf ([2]; read-out: MRT 0-∞) | Compound | EC50 (M4 receptor) |
| --- | --- | --- | --- | --- | --- | --- | --- | --- | --- | --- |
| 40.9 nM | 3260 ng·h/mL | 914 ng/mL | 1 h | 2.4 h | – | – | – | – | COc1cc(N2CC(CC(=O)N3Cc4c(C)c(C)n5ncnc5c4C3)C2)c(Cl)cn1 [Example 147] | – |
| 13.3 nM | 3220 ng·h/mL | 1040 ng/mL | 1 h | 2.6 h | – | – | – | – | Cc1c2c(c3ncnn3c1C)CN(C(=O)CC1CN(c3ccc4nc(C(F)F)cn4n3)C1)C2 [Example 189] | – |
| 87.1 nM | 3640 ng·h/mL | 1330 ng/mL | 0.83 h | 2 h | – | – | – | – | Cc1c2c(c3ncnn3c1C)CN(C(=O)CC1CN(c3ccc4c(cnn4C)c3)C1)C2 [Example 269] | – |
| 26.9 nM | 4080 ng·h/mL | 2380 ng/mL | 0.5 h | 1.32 h | – | – | – | – | CCOc1ccc(N2CC(CC(=O)N3Cc4c(C)c(C)n5ncnc5c4C3)C2)cn1 [Example 304, 1-(5,6-Dimethyl-7,9-dihydro-8H-pyrrolo[3,4-c][1,2,4]triazolo[1,5-a]pyridin-8-yl)-2-(1-(6-ethoxypyridin-3-yl)azetidin-3-yl)ethan-1-one] | – |
| 32.6 nM | 11400 ng·h/mL | 1460 ng/mL | 1 h | 5.02 h | – | – | – | – | Cc1c2c(n3ncnc3c1Cl)CN(C(=O)CC1CN(c3ncc(F)cn3)C1)C2 [Example 346, 1-(4-Chloro-5-methyl-6,8-dihydro-7H-pyrrolo[3,4-e][1,2,4]triazolo[1,5-a]pyridin-7-yl)-2-(1-(5-fluoropyrimidin-2-yl)azetidin-3-yl)ethan-1-one] | – |
| 37 nM | 7050 ng·h/mL | 1710 ng/mL | 1 h | 2.8 h | – | – | – | – | COc1cc(N2CC(OC(=O)N3Cc4c(C)c(C)n5ncnc5c4C3)C2)ccn1 [Example 182] | – |
| 40.4 nM | 6150 ng·h/mL | 1090 ng/mL | 2 h | 3.9 h | – | – | – | – | Cc1c2c(c3ccnn3c1C)CN(C(=O)CC1CN(c3ccnc(C(F)(F)F)c3)C1)C2 [Example 76, 1-(4,5-Dimethyl-2,3-dihydro-1H-pyrrolo[4,3-c]pyrazolo[1,5-a]pyridin-2-yl)-2-{1-[2-(trifluoromethyl)pyridin-4-yl]azetidin-3-yl}ethan-1-one] | – |
| 49.1 nM | 6710 ng·h/mL | 1090 ng/mL | 1.5 h | 4.6 h | – | – | – | – | COc1cc(N2CC(CC(=O)N3Cc4c(C)c(C)n5ncnc5c4C3)C2)ccn1 [Example 236] | – |
| 31 nM | 16100 ng·h/mL | 2840 ng/mL | 2 h | 3.9 h | – | – | – | – | Cc1c2c(c3ncnn3c1C)CN(C(=O)OC1CN(c3ccc4nc(C(F)F)cn4n3)C1)C2 [Example 191] | – |
| 20.6 nM | 3170 ng·h/mL | 967 ng/mL | 1 h | 2.6 h | – | – | – | – | Cc1c2c(c3ncnn3c1C)CN(C(=O)CC1CN(c3ccnc(OC4CC4)c3)C1)C2 [Example 188] | – |
| – | 12200 ng·h/mL | 2530 ng/mL | 2 h | 3.5 h | 4160 ng·h/mL | 1040 ng/mL | 30 min | 3.8 h | Cc1c2c(c3ncnn3c1C)CN(C(=O)OC1CN(c3ccnc(OC(F)F)c3)C1)C2 [Example 123] | – |
| 16.9 nM | 26700 ng·h/mL | 2140 ng/mL | 4 h | 11.2 h | – | – | – | – | Cc1c2c(n3ncnc3c1Cl)CN(C(=O)CC1CN(c3ncc(C(F)(F)F)cn3)C1)C2 [Example 317, 1-(4-Chloro-5-methyl-6,8-dihydro-7H-pyrrolo[3,4-e][1,24]triazolo[1,5-a]pyridin-7-yl)-2-(1-(5-(trifluoromethyl)pyrimidin-2-yl)azetidin-3-yl)ethan-1-one] | – |
| 23.2 nM | 12000 ng·h/mL | 3500 ng/mL | 0.83 h | 2.5 h | – | – | – | – | Cc1c2c(c3ncnn3c1C)CN(C(=O)CC1CN(c3cnc4c(c3)COC4)C1)C2 [Example 270] | – |
| 39.3 nM | 8540 ng·h/mL | 3210 ng/mL | 0.5 h | 1.7 h | – | – | – | – | Cc1c2c(c3nccn3c1C)CN(C(=O)OC1CN(c3ccnc(C(F)F)c3)C1)C2 [Example 141] | – |

| Compound | EC50 (M4 receptor; [3]) | AUC(0-inf) [1] | Cmax [1] | Tmax [1] | MRT inf [1] | AUC(0-inf) [2] | Cmax [2] | Tmax [2] | MRT inf ([2]; read-out: MRT 0-∞) | EC50 (M4 receptor) |
| --- | --- | --- | --- | --- | --- | --- | --- | --- | --- | --- |
| CCn1ncc2cc(N3CC(CC(=O)N4Cc5c(C)c(C)n6ncnc6c5C4)C3)ccc21 [Example 307] | – | 5300 ng·h/mL | 2110 ng/mL | 0.75 h | 2.02 h | – | – | – | – | 17.1 nM |
| Cc1cc2ncnn2c2c1CN(C(=O)CC1CN(c3ncc(C(F)(F)F)cn3)C1)C2 [Example 331] | – | 10700 ng·h/mL | 944 ng/mL | 2 h | 6.8 h | – | – | – | – | 101 nM |
